# According to the supplement of paper PMC10307832:
# What was measured:
# Assay in all cases: relative viability (nuclei count vs DMSO), 5 days (fraction); higher = more cells survive
# Seliciclib = compound: CC[C@H](CO)Nc1nc(NCc2ccccc2)c2ncn(C(C)C)c2n1 [Seliciclib]
# Summary of the method: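 Viability was read as treated-well nuclei divided by vehicle-well nuclei, using the median across plates. Lung cancer cell lines in 1536-well plates were kept overnight at 37 °C, pinned with five √10-spaced library-drug doses, and after 5 days were Hoechst-stained, imaged at 4× and counted in MetaXpress. Plates passed only with control CV below 25% and at least one doubling.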
# Seliciclib + Trametinib = compound: CC[C@H](CO)Nc1nc(NCc2ccccc2)c2ncn(C(C)C)c2n1 [Seliciclib] + CC(=O)Nc1cccc(-n2c(=O)n(C3CC3)c(=O)c3c(Nc4ccc(I)cc4F)n(C)c(=O)c(C)c32)c1 [Trametinib] (partner 0.02 µM)
# Summary of the method: (§1)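 For relative viability, nuclei counts in treated wells were divided by those in vehicle wells. Lung cancer cell lines had been pin-tool dosed in 1536-well plates the day after seeding and cultured for 5 days, then fixed and stained in one step (final 0.05% Triton X-100, 1% formaldehyde, 1 ug/ml Hoechst) and imaged at 4×. Doses were one drug alone or a fixed anchor-drug dose plus five library-drug doses (not always all listed) in √10 steps, and values are duplicate-plate medians.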
# Seliciclib + Phenformin = compound: CC[C@H](CO)Nc1nc(NCc2ccccc2)c2ncn(C(C)C)c2n1 [Seliciclib] + N=C(N)NC(=N)NCCc1ccccc1 [Phenformin] (partner 250 µM)
# Summary of the method: as §1
# Seliciclib + Olaparib = compound: CC[C@H](CO)Nc1nc(NCc2ccccc2)c2ncn(C(C)C)c2n1 [Seliciclib] + O=C(c1cc(Cc2n[nH]c(=O)c3ccccc23)ccc1F)N1CCN(C(=O)C2CC2)CC1 [Olaparib] (partner 8 µM)
# Summary of the method: as §1
Cell Line,relative viability (Seliciclib; 0.08 µM),relative viability (Seliciclib; 0.253 µM),relative viability (Seliciclib; 0.8 µM),relative viability (Seliciclib; 2.53 µM),relative viability (Seliciclib; 8 µM),relative viability (Seliciclib + Trametinib; first compound 0.08 µM),relative viability (Seliciclib + Trametinib; first compound 0.253 µM),relative viability (Seliciclib + Trametinib; first compound 0.8 µM),relative viability (Seliciclib + Trametinib; first compound 2.53 µM),relative viability (Seliciclib + Trametinib; first compound 8 µM),relative viability (Seliciclib + Phenformin; first compound 0.08 µM),relative viability (Seliciclib + Phenformin; first compound 0.253 µM),relative viability (Seliciclib + Phenformin; first compound 0.8 µM),relative viability (Seliciclib + Phenformin; first compound 2.53 µM),relative viability (Seliciclib + Phenformin; first compound 8 µM),relative viability (Seliciclib + Olaparib; first compound 0.08 µM),relative viability (Seliciclib + Olaparib; first compound 0.253 µM),relative viability (Seliciclib + Olaparib; first compound 0.8 µM),relative viability (Seliciclib + Olaparib; first compound 2.53 µM),relative viability (Seliciclib + Olaparib; first compound 8 µM)
201T,0.982,1.06,0.959,0.845,0.883,0.701,0.716,0.694,0.727,0.632,0.413,0.441,0.47,0.383,0.418,0.805,0.834,0.812,0.882,0.805
NCI-H1915,0.982,1.02,0.956,0.933,0.856,0.315,0.277,0.307,0.292,0.288,0.448,0.403,0.376,0.373,0.328,0.27,0.287,0.273,0.227,0.196
NCI-H2009,1.03,1.16,1.03,0.996,0.994,0.278,0.208,0.264,0.262,0.296,0.487,0.599,0.498,0.474,0.493,0.734,0.576,0.724,0.64,0.706
BEN,1.04,0.82,1.03,0.907,0.817,0.976,0.809,1.1,0.991,1.04,0.268,0.249,0.125,0.284,0.227,0.898,1.01,1.16,1.01,0.815
PC-14,0.995,1.03,1.02,0.987,0.859,0.788,0.529,0.719,0.721,0.532,0.665,0.431,0.553,0.463,0.319,0.286,0.285,0.29,0.343,0.266
NCI-H2170,0.93,0.697,0.897,0.997,0.946,0.85,,0.884,0.927,0.888,0.393,0.489,0.354,0.436,0.411,0.521,,0.582,0.654,0.609
NCI-H727,0.85,0.891,0.8,0.796,0.75,0.388,0.443,0.399,0.377,0.335,0.562,0.488,0.561,0.373,0.472,0.873,0.805,0.596,0.74,0.731
NCI-H1355,0.977,0.959,0.89,0.905,0.959,0.391,0.336,0.477,0.474,0.415,0.436,0.443,0.433,0.423,0.435,0.715,0.697,0.727,0.779,0.635
